US10912815B2, “Inhibitors of mitochondrial fission and methods of use thereof” (The Board of Trustees of the Leland Stanford Junior …, priority 2011, dated 2021)
No end group written: not given here.

How the values were obtained:
Drp1/Fis1 interaction = Drp1/Fis1 interaction (Homo sapiens, UniProt O00429); test: Direct binding between recombinant Drp1 and Fis1 (immunoprecipitation); conditions: peptides 1 μM each, Drp1 50 ng, Fis1 50 ng, FIG. 2D
Protocol: In another set of experiments, Drp1 was incubated with Fis1 and the complex was immunoprecipitated using anti-Drp1 antibody followed by immunoblotting with anti-Fis1 antibody. For direct binding between Drp1 and Fis1, recombinant Drp1 (50 ng) and Fis1 (50 ng) were incubated in PBS containing 1 mM DSP for 30 min in the presence or absence of Drp1/Fis1 peptides (1 μM each) or control peptide TAT. After termination of the reaction by 50 mM Tris-HCl, pH 7.5, reaction mixtures were subjected to immunoprecipitation with anti-Fis1 antibody in the presence of 1% Triton X-100. Immunoprecipitates were washed with PBS containing 1% Triton X-100 and analyzed by SDS-PAGE and subsequent immunoblotting with antibodies to Fis1 and Drp1.

SH-SY5Y cells = test: Mitochondrial membrane potential in SH-SY5Y cells (TMRM); format: cell-based, human; conditions: SH-SY5Y in the presence of MPP+ or CCCP, FIG. 6B
Protocol: The effects of MPP+ or CCCP on translocation of Drp1 in the absence and presence of P110 was measured using confocal microscopy. Cultured SH-SY5Y cells in black 96-well plate were treated with Drp1 peptide inhibitor P110 (1 μM) 30 min prior to treatment of MPP+ (2 mM) or CCCP (5 uM). After 2 hrs of treatment, cells were stained with MITOSOX™ (red mitochondrial superoxide indicator) (5 uM, for 10 min, mitochondrial ROS) or TMRM (0.5 uM, for 20 min, MMP) at 37° C. For total ROS detection, cells were treated with MPP+ or CCCP for 24 hrs. ROS level was measured by CM-H2DCFDA (1 μM for 30 min, Invitrogen). Cells were washed with PBS for three times. The detection was performed in a fluorescence microplate reader (Tecan, Infinite M1000) according to manufacturer's instructions. Measurements were normalized to the cell number counted using Hoechst staining.
Mitochondrial membrane potential was also determined using TMRM (tetramethylrhodamine methylester). […] Fluoresence detection was performed using black 96-well plates in a fluorescence microplate reader at 560 nm excitation and 690 nm emission and potential was assessed by quenching of the fluorescent signal. […] A kinetic change of mitochondrial superoxide production was determined by using MITOSOX™ (red mitochondrial superoxide indicator). […]

dynamin-1 = biological target: T1, dynamin-1 (Homo sapiens, UniProt Q05193); test: In vitro GTPase assay, recombinant dynamin-1; format: biochemical; conditions: recombinant dynamin-1 25 ng, FIG. 2B
T1 sequence (Q05193 1-864): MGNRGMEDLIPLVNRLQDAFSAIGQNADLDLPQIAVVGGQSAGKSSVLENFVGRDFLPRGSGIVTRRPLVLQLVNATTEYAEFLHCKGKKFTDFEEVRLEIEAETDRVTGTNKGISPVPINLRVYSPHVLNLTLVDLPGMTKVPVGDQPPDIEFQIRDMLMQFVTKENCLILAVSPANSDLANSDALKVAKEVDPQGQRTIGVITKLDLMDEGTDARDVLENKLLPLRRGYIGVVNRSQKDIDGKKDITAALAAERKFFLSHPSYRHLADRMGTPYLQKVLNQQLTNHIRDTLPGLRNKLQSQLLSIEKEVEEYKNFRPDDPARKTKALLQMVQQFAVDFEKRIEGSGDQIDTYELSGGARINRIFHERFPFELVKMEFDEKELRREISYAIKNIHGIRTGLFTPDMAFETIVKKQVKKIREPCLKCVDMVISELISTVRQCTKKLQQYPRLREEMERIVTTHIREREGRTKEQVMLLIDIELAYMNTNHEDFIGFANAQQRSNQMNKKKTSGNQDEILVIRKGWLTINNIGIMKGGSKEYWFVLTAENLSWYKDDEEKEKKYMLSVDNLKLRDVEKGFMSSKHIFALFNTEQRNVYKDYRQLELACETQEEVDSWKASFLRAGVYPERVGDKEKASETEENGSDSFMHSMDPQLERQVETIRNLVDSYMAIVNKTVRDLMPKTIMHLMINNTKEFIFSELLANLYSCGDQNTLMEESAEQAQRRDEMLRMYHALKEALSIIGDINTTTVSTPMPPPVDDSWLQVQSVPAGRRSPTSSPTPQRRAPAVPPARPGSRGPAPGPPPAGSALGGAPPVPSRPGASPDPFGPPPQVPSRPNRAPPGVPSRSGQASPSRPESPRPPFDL
Protocol: First, mitochondrial fission inhibitor constructs were tested to determine what, if any, effects each peptide had on enzyme (GTPase) activity. Recombinant protein Drp1, Mfn1, OPA1 or dynamin-1 (25 ng) was incubated with the indicated modulator peptides for 30 min. GTPase activity was assayed in vitro using a GTPase assay kit (Innova Biosciences, Littleton, USA, or Novus Biologicals, Littleton, Colo.) according to manufacturer's instructions.

Drp1 Ser616 = Drp1 Ser616 phosphorylation in SH-SY5Y cells; format: cell-based, human
Protocol: Cultured human SH-SY5Y neuronal cells were treated with peptide P110 (1 μM) for 30 min prior to 1 hr incubation in the absence or presence of MPP+(1-methyl-4-phenylpyridinium, a specific mitochondrial complex I inhibitor) (2 mM) or CCCP (carbonyl cyanide m-chloro phenyl hydrazone) (10 μM). Western blot analysis of mitochondrial fractions was determined by the indicated antibodies. VDAC was used as a loading control.
The function of Drp1 is regulated at least in part by phosphorylation events.

Chain of Drp1/Fis1 interaction (O00429 1-710 isoform O00429-3): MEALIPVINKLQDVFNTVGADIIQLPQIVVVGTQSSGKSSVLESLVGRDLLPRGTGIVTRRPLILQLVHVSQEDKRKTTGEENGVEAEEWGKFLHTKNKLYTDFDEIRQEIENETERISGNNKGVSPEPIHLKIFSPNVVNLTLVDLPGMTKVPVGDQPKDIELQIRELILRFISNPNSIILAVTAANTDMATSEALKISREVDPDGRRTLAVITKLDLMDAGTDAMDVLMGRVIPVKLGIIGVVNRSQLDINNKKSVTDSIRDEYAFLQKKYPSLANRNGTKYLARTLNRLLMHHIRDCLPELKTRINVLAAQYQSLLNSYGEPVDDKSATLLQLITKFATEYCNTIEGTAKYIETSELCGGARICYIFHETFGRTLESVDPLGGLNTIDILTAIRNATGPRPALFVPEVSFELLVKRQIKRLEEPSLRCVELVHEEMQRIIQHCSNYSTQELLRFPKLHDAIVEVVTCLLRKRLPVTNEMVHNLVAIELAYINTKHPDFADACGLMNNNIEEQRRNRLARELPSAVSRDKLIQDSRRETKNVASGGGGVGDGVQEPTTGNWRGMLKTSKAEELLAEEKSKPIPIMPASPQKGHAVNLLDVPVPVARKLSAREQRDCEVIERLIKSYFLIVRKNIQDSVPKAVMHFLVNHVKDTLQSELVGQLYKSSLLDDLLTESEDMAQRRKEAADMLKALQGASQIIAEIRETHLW

## RRRQRRKKRGYGGDLLPRGS (RRRQRRKKRGYGGDLLPRGS-NH2) [P110, TAT47-57 carrier, GG linker, Drp1 region 110 (GTPase domain) peptide DLLPRGS; C-terminus C(O)-NH2]
Drp1/Fis1 interaction
  Drp1-Fis1 interaction, recombinant proteins: blocked
SH-SY5Y cells
  mitochondrial membrane potential (MMP): significantly recovered
dynamin-1
  effect on GTPase activity of dynamin-1: no effects
Drp1 Ser616; SH-SY5Y exposed to MPP+ or CCCP, FIG. 3F
  Drp1 Ser616 phosphorylation: abolished Ser616 phosphorylation
Drp1 Ser616; SH-SY5Y, no stressor
  Drp1 levels and phosphorylation under normal conditions: did not affect
